Here are results for one substance from patent US12655387B2, “Hair follicle primordia and method for producing same” (National University Corporation Yokohama National University, priority 2019, dated 2026).

This test deals with epithelial cells and mesenchymal cells (hair follicle germ). In words: co-culture of epithelial cells and mesenchymal cells in culture solution with dispersed additive; formation of hair shaft-like structure in hair follicle germ. Particulars: for formation of hair follicle germ having a hair shaft-like structure: up to day 8 of culture. The class given is cell-based, C57BL/6 mouse. The procedure:
A dorsal skin tissue was collected from a C57BL/6 mouse embryo at embryonic day 18, and was subjected to dispase treatment by a partially modified version of a method reported by […]. (Koh-ei Toyoshima et al. Nature Communications, 3, 784, 2012) at 4° C. under the shaking condition of 30 rpm for 1 hour to separate the epithelial layer and mesenchymal layer of the skin tissue. After that, the epithelial layer was treated with 100 U/mL collagenase for 1 hour and 20 minutes and further treated with trypsin for 10 minutes to isolate epithelial cells. In addition, the mesenchymal layer was treated with 100 U/mL collagenase for 1 hour and 20 minutes to isolate mesenchymal cells.
In example 1-1, the epithelial cells and the mesenchymal cells were co-cultured using a culture solution containing laminin, entactin, and type IV collagen. First, DMEM/F12 medium (Advanced Dulbecco's Modified Eagle Medi um/Ham's F-12, GIBCO® containing 1% GLUTAMAX® Supplement (L-glutamine supplement in […], GIBCO® and 0.2% NORMOCIN® (antimicrobial agent, INVIVOGEN®) was prepared as the culture solution.
Then, the epithelial cells and the mesenchymal cells in such amounts as to achieve a cell density of 5×10^3 cells/mL each (such amounts as to achieve a total cell density of 1×10^4 cells/mL) were suspended in the culture solution, and MATRIGEL® (MATRIGEL® Basement Membrane Matrix, CORNING®) in such an amount as to achieve a concentration of 1 v/v % was further added to prepare a cell suspension.
The Matrigel product used contained 10.6 mg/mL (protein amount measured by the Lowry method) of a soluble basement membrane matrix extracted from an Engelbreth-Holm-Swarm (EHS) mouse tumor, and a compositional ratio in the basement membrane matrix was as follows: 56% of laminin, 8% of entactin, and 31% of type IV collagen.
100 μL of the cell suspension was placed in each well of a 96-well plate (Prime surface (trademark), Sumitomo Bakelite Co., Ltd.) to inoculate the epithelial cells and the mesenchymal cells. […]

Regarding laminin, the “formation of hair shaft-like structure in hair follicle germ” value (1 v/v % of product at inoculation, day 8 of culture (examples 5-1, 5-2, 5-3, 6)) is “had no hair shaft-like structure formed therein”. The “formation of hair follicle germ having a hair shaft-like structure” value (example C1-1: 5 v/v % of product (39 to 41 μg/mL laminin)) is “a hair follicle germ having a hair shaft-like structure was not formed” and the “formation of hair follicle germ having a hair shaft-like structure” value (example C1-2: 10 v/v % of product (78 to 82 μg/mL laminin)) is given as “a hair follicle germ having a hair shaft-like structure was not formed”.
